Data taken from patent US10799433B2, “Foaming antimicrobial compositions” (S.C. Johnson & Son, Inc., priority 2016, dated 2020).

Test system: C. albicans 10231
Experiment: Skin conditioner impact on antimicrobial efficacy
Format: cell-based, Candida albicans
Conditions: skin conditioner added to prototype composition
From the text: FIG. 6 is a bar graph showing the effect on the antimicrobial efficacy (average log reduction of C. albicans 10231) for three prototype antimicrobial compositions sharing all the same ingredients but differing in the amount of added PEG-45 palm kernel glycerides (ranging from 0 to 1.0%) in comparison to a commercial antimicrobial soap (ECOLAB Equi-Soft™ soap).

Substance: PEG-45 palm kernel glycerides
- impact on the efficacy: negative impact
